Measured values as given in US6737383B1, “Herbicidal oxadiazolidines” (priority 1999, dated 2004).

How the values were obtained:
[1] = test system: cocklebur; test: Test B pre/postemergence cocklebur; assay type: in vivo, Xanthium strumarium; conditions: for Cocklebur plant response rating: scale of 0 to 10 where 0 is no effect and 10 is complete control
Outline: (§1)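 Test chemicals in a non-phytotoxic solvent mixture with surfactant were sprayed preemergence onto planted seeds and postemergence onto plants 2 to 18 cm tall (1- to 4-leaf stage). After twelve to sixteen days in a greenhouse, injury was visually rated against untreated controls from 0 (no effect) to 10 (complete control).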

[2] = test system: giant foxtail; test: Test B pre/postemergence giant foxtail; assay type: in vivo, Setaria faberii; conditions: for Giant foxtail plant response rating: scale of 0 to 10 where 0 is no effect and 10 is complete control
Outline: as §1

[3] = test system: morningglory; test: Test B pre/postemergence morningglory; assay type: in vivo, Ipomoea hederacea; conditions: for Morningglory plant response rating: scale of 0 to 10 where 0 is no effect and 10 is complete control
Outline: as §1

[4] = test system: pigweed; test: Test B pre/postemergence pigweed; assay type: in vivo, Amaranthus retroflexus; conditions: for Redroot pigweed plant response rating: scale of 0 to 10 where 0 is no effect and 10 is complete control
Outline: as §1

[5] = test system: wild oat; test: Test B pre/postemergence wild oat; assay type: in vivo, Avena fatua; conditions: for Wild oats plant response rating: scale of 0 to 10 where 0 is no effect and 10 is complete control
Outline: as §1

[6] = test system: rape; test: Test B pre/postemergence rape; assay type: in vivo, Brassica napus; conditions: for Rape plant response rating: scale of 0 to 10 where 0 is no effect and 10 is complete control
Outline: as §1

[7] = test system: purple nutsedge; test: Test B pre/postemergence purple nutsedge; assay type: in vivo, Cyperus rotundus; conditions: for Nutsedge plant response rating: scale of 0 to 10 where 0 is no effect and 10 is complete control
Outline: as §1

[8] = test system: soybean; test: Test B pre/postemergence soybean; assay type: in vivo, Glycine max; conditions: for Soybean plant response rating: scale of 0 to 10 where 0 is no effect and 10 is complete control
Outline: as §1

[9] = test system: corn; test: Test B pre/postemergence corn; assay type: in vivo, Zea mays; conditions: for Corn plant response rating: scale of 0 to 10 where 0 is no effect and 10 is complete control
Outline: as §1

[10] = test system: duck salad; test: Test B flood test duck salad; assay type: in vivo, Heteranthera limosa
Experimental: (§2) At the same time, these crop and weed species were also treated with postemergence applications of test chemicals formulated in the same manner. Plants ranged in height from 2 to 18 cm (1- to 4-leaf stage) for postemergence treatments. Plant species in the flood test consisted of rice (Oryza sativa), smallflower flatsedge (Cyperus difformis), duck salad (Heteranthera limosa) and bamyardgrass (Echinochloa crus-galli) grown to the 2-leaf stage for testing. Treated plants and controls were maintained in a greenhouse for twelve to sixteen days, after which all species were compared to controls and visually evaluated. Plant response ratings, summarized in Table B, are based on a scale of 0 to 10 where 0 is no effect and 10 is complete control. A dash (−) response means no test result.

[11] = test system: sugar beet; test: Test B pre/postemergence sugar beet; assay type: in vivo, Beta vulgaris; conditions: for Sugarbeets plant response rating: scale of 0 to 10 where 0 is no effect and 10 is complete control
Outline: as §1

[12] = test system: smallflower flatsedge; test: Test B flood test smallflower flatsedge; assay type: in vivo, Cyperus difformis
Experimental: as §2

[13] = test system: crabgrass; test: Test B pre/postemergence crabgrass; assay type: in vivo, Digitaria sanguinalis; conditions: for Crabgrass plant response rating: scale of 0 to 10 where 0 is no effect and 10 is complete control
Outline: as §1

[14] = test system: bamyardgrass; test: Test B flood test barnyardgrass; assay type: in vivo, Echinochloa crus-galli
Experimental: as §2

[15] = test system: wheat; test: Test B pre/postemergence wheat; assay type: in vivo, Triticum aestivum; conditions: for Wheat plant response rating: scale of 0 to 10 where 0 is no effect and 10 is complete control
Outline: as §1

[16] = test system: blackgrass; test: Test B pre/postemergence blackgrass; assay type: in vivo, Alopecurus myosuroides; conditions: for Blackgrass plant response rating: scale of 0 to 10 where 0 is no effect and 10 is complete control
Outline: as §1

[17] = test system: surinam grass; test: Test B pre/postemergence surinam grass; assay type: in vivo, Brachiaria decumbens; conditions: for B. signalgrass plant response rating: scale of 0 to 10 where 0 is no effect and 10 is complete control
Outline: as §1

[18] = test system: bedstraw; test: Test B pre/postemergence bedstraw; assay type: in vivo, Galium aparine; conditions: for Bedstraw plant response rating: Rate 500 g/ha, scale of 0 to 10 where 0 is no effect and 10 is complete control
Outline: as §1

[19] = test system: velvetleaf; test: Test B pre/postemergence velvetleaf; assay type: in vivo, Abutilon theophrasti; conditions: for Velvetleaf plant response rating: scale of 0 to 10 where 0 is no effect and 10 is complete control
Outline: as §1

[20] = Postemergence, Rate 125 g/ha, scale 0 to 10, 0 is no effect, 10 is complete control
[21] = Postemergence, Rate 250 g/ha, scale 0 to 10, 0 is no effect, 10 is complete control
[22] = Preemergence, Rate 62 g/ha, scale 0 to 10 (0 no effect, 10 complete control)
[23] = Rate 62 g/ha, flood test species, Pre-emergence, visual evaluation after twelve to sixteen days
[24] = Rate 125 g/ha, under heading Pre-emergence, flood test species, visual evaluation after twelve to sixteen days
[25] = Rate 250 g/ha, Pre-emergence, flood-test species, scale 0 to 10, 0 is no effect, 10 is complete control
[26] = Rate 500 g/ha, Pre-emergence, flood test species, scale 0 to 10 (0 no effect, 10 complete control)

## CCCCCCn1c(=O)on(C(=O)N(c2ccc(F)cc2)C(C)C)c1=O [Compound 389]
[1]; [20]
  Plant response rating, Cocklebur: 0
[1]; [21]
  Plant response rating, Cocklebur: 0
[1]; Postemergence, Rate 500 g/ha
  Cocklebur plant response rating: 0
[1]; [22]
  Plant response rating, Cocklebur: 0
[1]; Preemergence, Rate 125 g/ha
  Cocklebur plant response rating (0 to 10 scale): 0
[1]; Preemergence, Rate 250 g/ha
  Cocklebur plant response rating: 0
[1]; Preemergence, Rate 500 g/ha
  Cocklebur plant response rating: 0
[1]; Rate 62 g/ha, Postemergence
  Cocklebur plant response rating: 0
[2]; [20]
  Plant response rating, Giant foxtail: 2
[2]; [21]
  Plant response rating, Giant foxtail: 7
[2]; Postemergence, Rate 500 g/ha
  Giant foxtail plant response rating: 8
[2]; [22]
  Plant response rating, Giant foxtail: 2
[2]; Preemergence, Rate 125 g/ha
  Giant foxtail plant response rating (0 to 10 scale): 8
[2]; Preemergence, Rate 250 g/ha
  Giant foxtail plant response rating: 10
[2]; Preemergence, Rate 500 g/ha
  Giant foxtail plant response rating: 10
[2]; Rate 62 g/ha, Postemergence
  Giant foxtail plant response rating: 0
[3]; [21]
  Plant response rating, Morningglory: 8
[3]; Postemergence, Rate 500 g/ha
  Morningglory plant response rating: 10
[3]; [22]
  Plant response rating, Morningglory: 0
[3]; Preemergence, Rate 125 g/ha
  Morningglory plant response rating (0 to 10 scale): 0
[3]; Preemergence, Rate 250 g/ha
  Morningglory plant response rating: 0
[3]; Preemergence, Rate 500 g/ha
  Morningglory plant response rating: 1
[3]; Rate 62 g/ha, Postemergence
  Morningglory plant response rating: 2
[4]; [21]
  Plant response rating, Redroot pigweed: 0
[4]; Postemergence, Rate 500 g/ha
  Redroot pigweed plant response rating: 7
[4]; [22]
  Plant response rating, Redroot pigweed: 0
[4]; Preemergence, Rate 125 g/ha
  Redroot pigweed plant response rating (0 to 10 scale): 0
[4]; Preemergence, Rate 250 g/ha
  Redroot pigweed plant response rating: 4
[4]; Preemergence, Rate 500 g/ha
  Redroot pigweed plant response rating: 10
[4]; Rate 62 g/ha, Postemergence
  Redroot pigweed plant response rating: 0
[5]; [21]
  Plant response rating, Wild oats: 0
[5]; Postemergence, Rate 500 g/ha
  Wild oats plant response rating: 0
[5]; [22]
  Plant response rating, Wild oats: 0
[5]; Preemergence, Rate 125 g/ha
  Wild oats plant response rating (0 to 10 scale): 0
[5]; Preemergence, Rate 250 g/ha
  Wild oats plant response rating: 1
[5]; Preemergence, Rate 500 g/ha
  Wild oats plant response rating: 4
[5]; Rate 62 g/ha, Postemergence
  Wild oats plant response rating: 0
[6]; [21]
  Plant response rating, Rape: 2
[6]; Postemergence, Rate 500 g/ha
  Rape plant response rating: 4
[6]; [22]
  Plant response rating, Rape: 0
[6]; Preemergence, Rate 125 g/ha
  Rape plant response rating (0 to 10 scale): 0
[6]; Preemergence, Rate 250 g/ha
  Rape plant response rating: 0
[6]; Preemergence, Rate 500 g/ha
  Rape plant response rating: 8
[7]; [21]
  Plant response rating, Nutsedge: 0
[7]; Postemergence, Rate 500 g/ha
  Nutsedge plant response rating: 0
[7]; [22]
  Plant response rating, Nutsedge: 0
[7]; Preemergence, Rate 125 g/ha
  Nutsedge plant response rating (0 to 10 scale): 0
[7]; Preemergence, Rate 250 g/ha
  Nutsedge plant response rating: 0
[7]; Preemergence, Rate 500 g/ha
  Nutsedge plant response rating: 0
[7]; Rate 62 g/ha, Postemergence
  Nutsedge plant response rating: 0
[8]; [21]
  Plant response rating, Soybean: 2
[8]; Postemergence, Rate 500 g/ha
  Soybean plant response rating: 3
[8]; [22]
  Plant response rating, Soybean: 0
[8]; Preemergence, Rate 125 g/ha
  Soybean plant response rating (0 to 10 scale): 0
[8]; Preemergence, Rate 250 g/ha
  Soybean plant response rating: 0
[8]; Preemergence, Rate 500 g/ha
  Soybean plant response rating: 3
[8]; Rate 62 g/ha, Postemergence
  Soybean plant response rating: 2
[9]; [20]
  Plant response rating, Corn: 0
[9]; [21]
  Plant response rating, Corn: 0
[9]; Postemergence, Rate 500 g/ha
  Corn plant response rating: 0
[9]; [22]
  Plant response rating, Corn: 0
[9]; Preemergence, Rate 125 g/ha
  Corn plant response rating (0 to 10 scale): 0
[9]; Preemergence, Rate 250 g/ha
  Corn plant response rating: 0
[9]; Preemergence, Rate 500 g/ha
  Corn plant response rating: 4
[9]; Rate 62 g/ha, Postemergence
  Corn plant response rating: 0
[10]; [23]
  Plant response rating, Ducksalad (0 to 10 scale, 0 is no effect, 10 is complete control): 0
[10]; [24]
  Ducksalad plant response rating (0 to 10 scale, 0 is no effect, 10 is complete control): 0
[10]; [25]
  Ducksalad plant response rating: 0
[10]; [26]
  Ducksalad plant response rating: 3
[11]; [21]
  Plant response rating, Sugarbeets: 0
[11]; Postemergence, Rate 500 g/ha
  Sugarbeets plant response rating: 0
[11]; [22]
  Plant response rating, Sugarbeets: 0
[11]; Preemergence, Rate 125 g/ha
  Sugarbeets plant response rating (0 to 10 scale): 0
[11]; Preemergence, Rate 250 g/ha
  Sugarbeets plant response rating: 0
[11]; Preemergence, Rate 500 g/ha
  Sugarbeets plant response rating: 4
[11]; Rate 62 g/ha, Postemergence
  Sugarbeets plant response rating: 0
[12]; [23]
  Plant response rating, S. Flatsedge (0 to 10 scale, 0 is no effect, 10 is complete control): 0
[12]; [24]
  S. Flatsedge plant response rating (0 to 10 scale, 0 is no effect, 10 is complete control): 0
[12]; [25]
  S. Flatsedge plant response rating: 0
[12]; [26]
  S. Flatsedge plant response rating: 0
[13]; [20]
  Plant response rating, Crabgrass: 3
[13]; [21]
  Plant response rating, Crabgrass: 4
[13]; Postemergence, Rate 500 g/ha
  Crabgrass plant response rating: 7
[13]; [22]
  Plant response rating, Crabgrass: 1
[13]; Preemergence, Rate 125 g/ha
  Crabgrass plant response rating (0 to 10 scale): 2
[13]; Preemergence, Rate 250 g/ha
  Crabgrass plant response rating: 9
[13]; Preemergence, Rate 500 g/ha
  Crabgrass plant response rating: 10
[13]; Rate 62 g/ha, Postemergence
  Crabgrass plant response rating: 0
[14]; [23]
  Plant response rating, Barnyardgrass (0 to 10 scale, 0 is no effect, 10 is complete control): 0
[14]; [24]
  Barnyardgrass plant response rating (0 to 10 scale, 0 is no effect, 10 is complete control): 0
[14]; [25]
  Barnyardgrass plant response rating: 0
[14]; [26]
  Barnyardgrass plant response rating: 0
[15]; [21]
  Plant response rating, Wheat: 0
[15]; Postemergence, Rate 500 g/ha
  Wheat plant response rating: 0
[15]; [22]
  Plant response rating, Wheat: 0
[15]; Preemergence, Rate 125 g/ha
  Wheat plant response rating (0 to 10 scale): 0
[15]; Preemergence, Rate 250 g/ha
  Wheat plant response rating: 0
[15]; Preemergence, Rate 500 g/ha
  Wheat plant response rating: 0
[15]; Rate 62 g/ha, Postemergence
  Wheat plant response rating: 0
[16]; [20]
  Plant response rating, Blackgrass: 0
[16]; [21]
  Plant response rating, Blackgrass: 6
[16]; Postemergence, Rate 500 g/ha
  Blackgrass plant response rating: 6
[16]; [22]
  Plant response rating, Blackgrass: 0
[16]; Preemergence, Rate 125 g/ha
  Blackgrass plant response rating (0 to 10 scale): 2
[16]; Preemergence, Rate 250 g/ha
  Blackgrass plant response rating: 6
[16]; Preemergence, Rate 500 g/ha
  Blackgrass plant response rating: 9
[16]; Rate 62 g/ha, Postemergence
  Blackgrass plant response rating: 0
[17]; [20]
  Plant response rating, B. signalgrass: 0
[17]; [21]
  Plant response rating, B. signalgrass: 0
[17]; Postemergence, Rate 500 g/ha
  B. signalgrass plant response rating: 0
[17]; [22]
  Plant response rating, B. signalgrass: 0
[17]; Preemergence, Rate 125 g/ha
  B. signalgrass plant response rating (0 to 10 scale, 0 is no effect, 10 is complete control): 0
[17]; Preemergence, Rate 250 g/ha
  B. signalgrass plant response rating: 0
[17]; Preemergence, Rate 500 g/ha
  B. signalgrass plant response rating: 4
[17]; Rate 62 g/ha, Postemergence
  B. signalgrass plant response rating: 0
[18]; [21]
  Plant response rating, Bedstraw: 5
[18]; Postemergence
  Bedstraw plant response rating: 7
[18]; Preemergence
  Bedstraw plant response rating: 10
[19]; [21]
  Plant response rating, Velvetleaf: 0
[19]; Postemergence, Rate 500 g/ha
  Velvetleaf plant response rating: 0
[19]; [22]
  Plant response rating, Velvetleaf: 0
[19]; Preemergence, Rate 125 g/ha
  Velvetleaf plant response rating (0 to 10 scale): 0
[19]; Preemergence, Rate 250 g/ha
  Velvetleaf plant response rating: 0
[19]; Preemergence, Rate 500 g/ha
  Velvetleaf plant response rating: 2
[19]; Rate 62 g/ha, Postemergence
  Velvetleaf plant response rating: 0
